Reference: patent publication US20210086176A1, “Analyte Detection method” (The Board of Trustees of the Leland Stanford Junior …, priority 2017, published 2021)

Tests used:
[1] = inhalation; cited from earlier work
[2] = in vivo; cited from earlier work
[3] = mouse, in vivo, po, 10 mg/kg

CC#N [acetonitrile]
acetonitrile in inhaled air that can induce toxic effects [1]: 100 ppm

CCC(=O)C(CC(C)N(C)C)(c1ccccc1)c1ccccc1 (stereo not drawn) [methadone]
minimally effective plasma analgesic concentration (MEAC) [2]: 60 ng/mL

Cc1nccn1CC1CCc2c(c3ccccc3n2C)C1=O (stereo not drawn) [ondansetron]
slope of trend line, plasma (y) versus whole blood (x) ondansetron concentration [3]: 0.973
